Measured values published in US8541468B2, “Ophthalmic composition for treating tear dysfunction” (Ophtecs Corporation, priority 2003, dated 2013).

What was measured:
Format in all cases: in vivo
rat dry eye models [1] = test: Measurement of tear film breakup time (BUT) in rat dry eye models; conditions: eye drops of any concentration (40, 80 and 120 mmol/L HBA.Na), four times a day for 5 days, dry environment
Description: Air was blown against rats in a low humidity environment as described below to prepare rat dry eye models. An effect of sodium D-3-hydroxybutyrate (hereinafter abbreviated as “HBA.Na”) which is an active ingredient in the present invention, i.e., its effect of improving the stability of tear film, was examined by use of the prepared rat dry eye models. That is, observation of dry spot areas in the tear film of the rats and measurement of BUT of the tear film were made.
As the animals to be examined, there were used female SD rats of 8 weeks old that had been conditioned in an animal room where they were kept under light for 12 hours and in the dark for 12 hours at a room temperature of 23±2° C. and a relative humidity of 60±10%. The rats were kept in the animal room for 4 days. […]
After passage of two hours from the last application of the eye drops on the fifth day, a xylazine hydrochloride/ketamine hydrochloride mixed solution was injected (2 ml/kg) into the rats to anesthetize them. After 1% fluorescein was added to the eyes of the rats and the rats were forced to blink a few times, BUT was measured. The above procedure was conducted for HBA.Na concentrations of 40, 80 and 120 mmol/L, and each of the HBA.Na concentrations was evaluated based on 8 eyes of 8 rats.

rat dry eye models [2] = test: Observation of dry spot areas in the tear film of rat dry eye models; conditions: four times a day for 5 days, dry environment
Description: Air was blown against rats in a low humidity environment as described below to prepare rat dry eye models. An effect of sodium D-3-hydroxybutyrate (hereinafter abbreviated as “HBA.Na”) which is an active ingredient in the present invention, i.e., its effect of improving the stability of tear film, was examined by use of the prepared rat dry eye models. That is, observation of dry spot areas in the tear film of the rats and measurement of BUT of the tear film were made. […]
After passage of two hours from the last application of the eye drops on the fifth day, a xylazine hydrochloride/ketamine hydrochloride mixed solution was injected (2 ml/kg) into the rats to anesthetize them. […] Dry spot areas had been observed for 5 minutes since the eye-opening by use of a dry eye observation device “DR-1” (product of KOWA CO., LTD.), and the observed images were recorded on a videotape. The observed images were analyzed by use of image analysis software “Scion Image (version 4.02β)” (product of Scion Corporation) to determine a dry spot area per unit area [dry spot area (pixel)/area of observed area on the cornea (pixel)]. From the area, a dry spot area per unit area of the cornea [dry spot area (mm^2)/area of observed area on the cornea (mm^2)] was calculated by use of a conversion formula (1 pixel=0.0000195 mm^2) and evaluated. […]

[3] = test system: corneal epithelial cells of rat dry eye models; test: SEM observation of corneal epithelial cells of rat dry eye models (proportion of dark cells, microvilli); conditions: 80 mmol/l HBA.Na applied for 5 days, dry environment
Description: By use of the rat dry eye models described in Example 1, the corneal epithelial cells of the rats after HBA.Na and PBS were applied were observed by a scanning electron microscope (hereinafter abbreviated as “SEM”).
Samples were prepared in the following manner. • (1) In accordance with the methods described (1), (2) and (4) of Example 1, after 80 mmol/l of HBA.Na and a PBS solution were applied for 5 days, the corneas of the rats were removed immediately and washed with a phosphate buffer (hereinafter abbreviated as “PB”). […]
The photographs taken by the above method were subjected to image analysis to calculate the proportion of the number of dark cells. In the analysis, 6 spots of a certain area were selected randomly from the photograph, the numbers of cells and dark cells within the areas were counted, and the ratio of the number of dark cells to the number of all cells was calculated. […]

C[C@@H](O)CC(=O)[O-].[Na+] [HBA.Na, sodium D-3-hydroxybutyrate]
tear film breakup time (BUT), compared with PBS (rat dry eye models [1]): BUT extended more significantly | dry spot area per unit area of the cornea, compared with PBS (rat dry eye models [2]; eye drop containing 80 mmol/l HBA.Na, p<0.05 vs PBS): significantly smaller dry spot area | dry spot area per unit area of the cornea, compared with PBS (rat dry eye models [2]; eye drop containing 120 mmol/l HBA.Na, tendency only): the dry spot area also became smaller | state of the microvilli/microvillus of the corneal epithelial cells ([3]; SEM): retained in a normal state and/or restored to the normal state | proportion of dark cells in corneal epithelial cells, compared with PBS ([3]; SEM image analysis): significantly lower proportion of dark cells
